Measurements reported in patent publication US20250152524A1, “TOPICAL COMPOSITIONS AND METHODS” (VasoDynamics Limited, priority 2022, published 2025).
Values joined by “and” are separate entries in the source; they are usually repeats but may differ in a detail not shown here. Equal values may be shown once. Where a name gives a salt, the structure may show the parent alone. Read-outs that look alike come from different tables or passages of the source.

Experiments:
radiation dermatitis = details: cited from earlier work; for relative potencies of the topically applied vasoconstrictors (suppression of radiation dermatitis): 75 μl in ethanol:water (70:30) on 4.5 cm^2 shaved skin 12 min before 17.2 Gy; for potency in comparison to epinephrine: Fahl, 2016
[1] = system: mucositis, dermatitis and alopecia; details: topically applied, animal models; cited from earlier work
cancerous tissues = details: topical application, three xenograft tumour mice models; cited from earlier work
submucosal blood vessels = system: submucosal blood vessels
Description: 2. While stirring, 2-5 N HCl was added to achieve a pH of 2.5.
3. […] The subject swished the 12.5 ml of formulation, gargling twice for 5 seconds each, for 2.0 minutes, and then spit out the formulation.

oral mucosa tissue = experiment: Lip blanch response after topical application of 1.0 ml to lips (Example 1); type: in vivo, human
[2] = for μmols retained in oropharyngeal cavity (A × 0.24): 12.5 ml administered; for Optimum L-Epinephrine Topical Dose (μmols/cm^2): 12.5 ml, surface area 188 cm^2
Description: In these experiments, three human volunteer subjects were provided vials containing solution of 5 mM phenylephrine HCl dissolved in our orotopical delivery vehicle, and they were instructed to: • i) deliver the vial contents into their mouths; • ii) ii) swish the liquid in their mouths, pausing to gargle twice for five seconds; and • iii) at the specified time spit out the liquid into a glass vial.
The volume administered and the volume spit out by each test subject were recorded, and HPLC analysis of the phenylephrine concentration in the administered solution and the solutions spit out by each of the three volunteer subjects were determined.

squamous human skin = details: 3 mg/ml
[3] = HCl titration of L-epinephrine free base in orotopical delivery vehicle: pH and appearance; type: physicochemical
Description: 18 hours later, the clear solution had developed a pink colour (consistent with adrenochrome formation, an oxidative epinephrine metabolite) and flocculant, re-precipitated material had appeared on the surface of the liquid.
An abrupt drop in pH occurred at pH 6.10 in which the turbidity also immediately clarified. Table 2 provides a summary of the pH values from this titration, and indicates the experimentally determined moles of HCl that were required to achieve pH 2.50 in this specific formulation

[4] = Stability of pharmaceutical composition with around 20% wt/vol oxygen (Example 9); type: physicochemical; details: 5 mM (0.92 mg/ml)
Description: The stability study samples were stored at the stability incubator chambers with various temperature and humidity conditions. At indicated time points, pulled samples were assessed on items such as Appearance, Identification, Colour of solution, Clarity of solutions, pH, Assay, Related Substances, Ethanol and Sodium Metabisulfite content for L-epinephrine solution.

[5] = Nutman et al., Crit Care Med 1994; cited from earlier work
[6] = 5 mM × 12.5 ml administered, one line per subject, HCl

For `CNC[C@H](O)c1cccc(O)c1` [phenylephrine], the “relative potencies of the topically applied vasoconstrictors (suppression of radiation dermatitis)” value (shortened to “relative potencies”) (radiation dermatitis) is given as 0.2, the “potency in comparison to epinephrine” value (radiation dermatitis) is given as “one fifth” and the “prevention of mucositis, dermatitis and alopecia induced by radiation” value (“prevention of mucositis” below) [1] is given as “successful outcome”. For the same molecule, the “interference to the curative radiation effect to cancerous tissues” value (shortened to “interference”) (cancerous tissues) was “no interference”.
In the case of `CNC[C@H](O)c1ccc(O)c(O)c1` [epinephrine], the “relative potencies” value (radiation dermatitis) is listed as 1, the “prevention of mucositis” value [1] is listed as “successful outcome” and the “interference” value (cancerous tissues) is listed as “no interference”.
In the case of `CNC[C@H](O)c1ccc(O)c(O)c1` [L-epinephrine], the “lip blanching (photos)” value (submucosal blood vessels; 5.5 mg/ml solution on the lower lip) is reported as “blanching”, the lip blanch response (submucosal blood vessels; 5 minutes after initiation of gargling, 12.5 ml, pH 2.5) is reported as “clear, robust blanch response” and the “time within which robust mucosal blanch was induced” value (submucosal blood vessels; four healthy volunteers, 0.9-5.5 mg/ml) is reported as 5 to 60 min. For the same molecule, the “time to see a robust lip blanch response” value (oral mucosa tissue; solution at pH 2.50, 20 mM, 1.0 ml on lips) was 8 min, the “time to see a discernible lip blanch response” value (oral mucosa tissue; solution at pH 4.95, 1.0 ml on lips) was ~20 min and the “share of L-epinephrine dose from the orotopical solution delivered to oral mucosa” value ([2]; 1.8 mg/ml or 3.6 mg/ml administered to mouths of adult humans) was 20-30%. For the same molecule, the “μmols retained in oropharyngeal cavity (A × 0.24)” value ([2]; 10 mM (1.8 mg/ml)) was 30 μmols, the “Optimum L-Epinephrine Topical Dose (μmols/cm^2)” value ([2]; 10 mM (1.8 mg/ml)) was 0.160 μmols/cm^2 and the “μmols retained in oropharyngeal cavity (A × 0.24)” value ([2]; 20 mM (3.6 mg/ml)) was 60 μmols. For the same molecule, the “Optimum L-Epinephrine Topical Dose (μmols/cm^2)” value ([2]; 20 mM (3.6 mg/ml)) was 0.320 μmols/cm^2, the “2N HCl added to adjust to pH 2.33 (ml/l)” value (L-epi conc 0.92 mg/ml) was 5.36 ml/l and the “pH without addition of L-epi” value (L-epi conc 0.92 mg/ml) was 4.32. The “2N HCl added to adjust to pH 2.33 (ml/l)” value (L-epi conc 5.50 mg/ml) was 11.88 ml/l, the “pH without addition of L-epi” value (L-epi conc 5.50 mg/ml) was 7.10 and the “duration of blanching after dermal topical application” value (squamous human skin) was “about 40 minutes”. The appearance of solution ([3]; at pH 2.50) was “clear and colourless”, the appearance of solution ([3]; at pH 4.95) was “clear and colourless” and the appearance of solution ([3]; pH 2.50 solution, 48 hrs later) was “clear and colourless”. The appearance of solution ([3]; pH 4.95 solution, 18 hours later) was “pink colour”, the single impurity ([4]; 40° C. for 1 month) was ~1.7% and the total impurities ([4]; 40° C. for 1 month) was 3.8%. The “concentration of antioxidant sodium metabisulfite” value ([4]; 60° C. and 40° C.) was “decreasing trend”, the “decrease of concentration of L-epinephrine” value ([4]; 60° C. stress condition) was “about 18%” and the sample colour ([4]; 60° C. stress condition) was “light brown”. For the same molecule, the single impurity ([4]; 60° C. stress condition) was “more than 8%”, the total impurities ([4]; 60° C. stress condition) was “more than 17%” and the “potency versus racemic +/−epinephrine HCl” value [5] was “twice as potent”.
In the case of `NC[C@H](O)c1ccc(O)c(O)c1` [norepinephrine], the “relative potencies” value (radiation dermatitis) is listed as 0.5, the “potency in comparison to epinephrine” value (radiation dermatitis) is listed as “half” and the “prevention of mucositis” value [1] is listed as “successful outcome”. For the same molecule, the “interference” value (cancerous tissues) was “no interference”.
With `CNC[C@H](O)c1cccc(O)c1` [PhE-HCl, phenylephrine HCl] the “Spit Out PhE-HCl mg/ml (hplc) × ml B” value ([2]; 5 mM × 12.5 ml (12.8 mg) administered, one line per subject, mean in brackets, HCl) was “(10.59) mg/ml × ml and 9.23, 9.62 (9.42) mg/ml × ml and 8.91, 9.51 (9.21) mg/ml × ml”, the “% of Administered Dose Spit Out B/A × 100” value [2, 6] was 74% and 72% and 83% and the “% of Orotopical PhE-HCl Dose Delivered to Oral Surfaces” value [2, 6] was 26% and 28% and 17%. The “mg PhE-HCl Actually Delivered” value [2, 6] was 3.3 mg and 3.6 mg and 2.2 mg.
